According to patent US9532972B2, “Increasing taxane sensitivity in cancer cells” (UNIVERSITY OF CENTRAL FLORIDA RESEARCH FOUNDATION, INC., priority 2012, dated 2017):

Experiments:
Type in all cases: cell-based
MCF7 = test: Flow cytometry cell cycle analysis (propidium iodide DNA content); details: MCF7 cells, 2 μM docetaxel, 24 hrs
Experimental: (§1) To confirm the results of the MTS assay, while further elucidating the link between LIMK1 expression and taxane sensitivity, the effects of taxane treatment on cell cycle were analyzed. […] Using flow cytometry to monitor DNA content, the percentages of cells in each phase of the cell cycle including the percentage of cells in the sub-G1 population (FIGS. 2A and B) were determined. […] Although after 24 hrs of treatment, the difference between cells lines became more apparent.
(§2) In order to confirm the implication of LIMK1 induced resistance to taxane treatment, the expression of LIMK1 in each cell line was altered. […] Sensitivity to the taxane treatment was monitored by MTS assay.
(§3) Cells were seeded into 60 mm dishes and transfected the following day with one of the previous constructs. […] At each time point, media and cells were collected, washed, and fixed in 70% EtOH at −20° C. for at least 30 mins. Cells were then washed and stained for 30 mins in PBS containing: 2% BSA; 0.1% Pluronic F-68 (Sigma); Propidium Iodide [80 ug/mL] (Sigma); RNase [100 ug/mL]. Data was collected using FACSCalibur and analyzed using Cell Quest and ModFit software.

PC-3 = test: as above; details: PC-3 cells, 2 μM docetaxel, 24 hrs
Experimental: as §1, §2, §3

[1] = system: cleaved caspases 3, cleaved caspases 9 and cleaved PARP; test: Western blot of apoptotic markers in docetaxel treated cell lysates
Excerpt: FIG. 5: Higher LIMK1 expression diminished Taxane induced apoptotic response. PC3 cells were transiently transfected with either LIMK1 targeting shRNA construct or scrambled shRNA construct. […] After 24 hrs of DTX treatment, cell were harvested and apoptotic markers were monitored by immunoblot. Cyt c Release: PC3 and MCF7 were transiently transfected with LIMK1 and Scrambled shRNA constructs, P69 cells were transiently transfected with LIMK1 expression vector, LIMK1-shRNA vector or control vector. […] Following treatment cells were harvested and cytosolic, mitochondrial, and nuclear fractions were isolated. Presence of Cyt c in the cytosol was monitored by immunoblot of cytosolic fraction. Densinometry was used to determine relative values.
Western blots were probed with the following antibodies: mouse anti-human-GAPDH (Sigma); mouse anti-FLAG (Sigma); rabbit anti-human-LIMK1 (Santa Cruz; Santa Cruz, Calif.); mouse anti-human LIMK1 (BD Pharmingen, San Diego, Calif.); rabbit anti-Cleaved Caspase 3/9 and anti-Cleaved PARP (Cell Signaling); rabbit anti-human-alpha-tubulin (Sigma). Mouse anti-Cytochrome c (R&D Systems). Rabbit anti-Prohibitin (Abcam). Rabbit anti-Bax (Santa Cruz). Rabbit anti-Bcl2 (Cell Signaling)

P69 = test: Flow cytometry cell cycle analysis (propidium iodide DNA content); details: P69 cells, 2 μM docetaxel, 24 hrs
Experimental: as §1, §3

MDA-MB-231 = test: as above; details: MDA-MB-231 cells, 2 μM docetaxel, 24 hrs
Experimental: as §1, §3

Structure (SMILES): CC(=O)O[C@@]12CO[C@@H]1C[C@H](O)[C@@]1(C)C(=O)[C@H](O)C3=C(C)[C@@H](OC(=O)[C@H](O)[C@@H](NC(=O)OC(C)(C)C)c4ccccc4)C[C@@](O)([C@@H](OC(=O)c4ccccc4)[C@H]21)C3(C)C [docetaxel]
- sub-G1 population (MCF7): 5%
- sub-G1 population (PC-3): 6%
- cleaved PARP [1]: increased levels
- cleaved caspases 3 [1]: increased levels
- cleaved caspases 9 [1]: increased levels
- sub-G1 population (P69): 15%
- sub-G1 population (MDA-MB-231): 25%
